US20240293413A1, “COMPOUND AND METHOD FOR TREATING CHEMOTHERAPY-RELATED GASTROINTESTINAL SIDE EFFECTS” (ONQUALITY PHARMACEUTICALS CHINA LTD., priority 2021, published 2024)

Legend:
Assay type in all cases: in vivo
[1] = test system: Chemotherapeutic agent-caused diarrhea models of Balb/c mice; assay: Examples 1-229 (Table 3): oral CDK inhibitor, relief of diarrhea caused by a chemotherapeutic agent;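 note: percent of treated mice whose diarrhea grade fell below chemotherapy-group average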
[2] = test system: diarrhea caused by a chemotherapeutic agent in Balb/c mice; assay: Examples 230-271 (Table 4): oral CDK inhibitor, relief of diarrhea caused by a chemotherapeutic agent
Summary of the method: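 Balb/c mice, 10 per group (vehicle, chemotherapeutic agent, CDK inhibitor plus chemotherapeutic); CDK inhibitor dosed intragastrically before the chemotherapeutic agent by injection or gavage. Diarrhea graded daily.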

[3] = test system: diarrhea caused by a chemotherapeutic agent in Balb/c mice; assay: Examples 343-381 (Table 6): oral versus intravenous CDK inhibitor, relief of diarrhea caused by a chemotherapeutic agent;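 for Relative remission rate: percent of treated mice whose diarrhea grade fell below chemotherapy-group average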
Summary of the method: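 Balb/c mice (10 per group) received the CDK inhibitor orally or by tail-vein injection, or vehicle, followed by a chemotherapeutic agent or its solvent. Diarrhea grade was scored daily.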

Structure (SMILES): CN(C)C(=O)c1cc2cnc(Nc3ccc(N4CCNCC4)cn3)nc2n1C1CCCC1 [Ribociclib]
- Relative remission rate (%) ([1]; Example 45, Fluorouracil (5-Fu) intravenous injection 175 mg/kg single, CDK inhibitor oral 200 mg/kg single 0.5 h before, cycle 8 days): 40%
- Relative remission rate (%) ([1]; Example 113, Irinotecan (CPT-11) oral administration 300 mg/kg single, CDK inhibitor oral 100 mg/kg single 24 h before, cycle 11 days): 60%
- Relative remission rate (%) ([1]; Example 167, Docetaxel (DTX) intravenous injection 10 mg/kg single, CDK inhibitor oral 200 mg/kg single 9 h before, cycle 8 days): 80%
- Relative remission rate (%) ([1]; Example 229, Etoposide 60 mg/kg and carboplatin 5 mg/kg intraperitoneal injection single, CDK inhibitor oral 200 mg/kg single, 12 h before, 10 days): 50%
- Relative remission rate ([2]; Example 243, Methotrexate (MTX) intravenous injection 300 mg/kg single, CDK inhibitor oral 125 mg/kg single, 0.5 h before, cycle 7 days): 80%
- Relative remission rate ([2]; Example 244, Methotrexate (MTX) intravenous injection 300 mg/kg single, CDK inhibitor oral 125 mg/kg single, 4 h before, cycle 7 days): 60%
- Relative remission rate ([2]; Example 245, Methotrexate (MTX) intravenous injection 300 mg/kg single, CDK inhibitor oral 125 mg/kg single, 8 h before, cycle 7 days): 80%
- Relative remission rate ([2]; Example 246, Methotrexate (MTX) intravenous injection 300 mg/kg single, CDK inhibitor oral 125 mg/kg single, 12 h before, cycle 7 days): 40%
- Relative remission rate ([2]; Example 247, Methotrexate (MTX) intravenous injection 300 mg/kg single, CDK inhibitor oral 125 mg/kg single, 24 h before, cycle 7 days): 60%
- Relative remission rate ([2]; Example 248, Methotrexate (MTX) intravenous injection 300 mg/kg single, CDK inhibitor oral 125 mg/kg single, 48 h before, cycle 7 days): 0%
- Relative remission rate ([2]; Example 251, Methotrexate (MTX) intraperitoneal injection 260 mg/kg single, CDK inhibitor oral 200 mg/kg single, 12 h before, cycle 7 days): 50%
- Relative remission rate ([2]; Example 252, Methotrexate (MTX) intraperitoneal injection 260 mg/kg single, CDK inhibitor oral 200 mg/kg single, 48 h before, cycle 7 days): 0%
- Relative remission rate ([2]; Example 269, Vinorelbine (NVB) oral administration 15 mg/kg single, CDK inhibitor oral 100 mg/kg single, 24 h before, cycle 11 days): 50%
- Relative remission rate ([3]; Example 352, Etoposide and cisplatin intraperitoneal injection 50 (E) 5 (Cis) mg/kg single, CDK inhibitor intravenous injection 125 mg/kg single, 0.5 h before, cycle 7 days): 10%
- Relative remission rate ([3]; Example 352, Etoposide and cisplatin intraperitoneal injection 50 (E) 5 (Cis) mg/kg single, CDK inhibitor oral 125 mg/kg single, 0.5 h before, cycle 7 days): 40%
- Relative remission rate ([3]; Example 353, Etoposide and cisplatin intraperitoneal injection 50 (E) 5 (Cis) mg/kg single, CDK inhibitor intravenous injection 125 mg/kg single, 4 h before, cycle 7 days): 10%
- Relative remission rate ([3]; Example 353, Etoposide and cisplatin intraperitoneal injection 50 (E) 5 (Cis) mg/kg single, CDK inhibitor oral 125 mg/kg single, 4 h before, cycle 7 days): 40%
- Relative remission rate ([3]; Example 354, Etoposide and cisplatin intraperitoneal injection 50 (E) 5 (Cis) mg/kg single, CDK inhibitor intravenous injection 125 mg/kg single, 8 h before, cycle 7 days): 10%
- Relative remission rate ([3]; Example 354, Etoposide and cisplatin intraperitoneal injection 50 (E) 5 (Cis) mg/kg single, CDK inhibitor oral 125 mg/kg single, 8 h before, cycle 7 days): 60%
- Relative remission rate ([3]; Example 355, Etoposide and cisplatin intraperitoneal injection 50 (E) 5 (Cis) mg/kg single, CDK inhibitor intravenous injection 125 mg/kg single, 12 h before, cycle 7 days): 20%
- Relative remission rate ([3]; Example 355, Etoposide and cisplatin intraperitoneal injection 50 (E) 5 (Cis) mg/kg single, CDK inhibitor oral 125 mg/kg single, 12 h before, cycle 7 days): 60%
- Relative remission rate ([3]; Example 356, Etoposide and cisplatin intraperitoneal injection 50 (E) 5 (Cis) mg/kg single, CDK inhibitor intravenous injection 125 mg/kg single, 24 h before, cycle 7 days): 10%
- Relative remission rate ([3]; Example 356, Etoposide and cisplatin intraperitoneal injection 50 (E) 5 (Cis) mg/kg single, CDK inhibitor oral 125 mg/kg single, 24 h before, cycle 7 days): 50%
- Relative remission rate ([3]; Example 359, Carboplatin (CBP) intraperitoneal injection 120 mg/kg single, CDK inhibitor intravenous injection 200 mg/kg single, 0.5 h before, cycle 10 days): 20%
- Relative remission rate ([3]; Example 359, Carboplatin (CBP) intraperitoneal injection 120 mg/kg single, CDK inhibitor oral 200 mg/kg single, 0.5 h before, cycle 10 days): 60%
- Relative remission rate ([3]; Example 360, Carboplatin (CBP) intraperitoneal injection 120 mg/kg single, CDK inhibitor intravenous injection 200 mg/kg single, 4 h before, cycle 10 days): 20%
- Relative remission rate ([3]; Example 360, Carboplatin (CBP) intraperitoneal injection 120 mg/kg single, CDK inhibitor oral 200 mg/kg single, 4 h before, cycle 10 days): 80%
- Relative remission rate ([3]; Example 361, Carboplatin (CBP) intraperitoneal injection 120 mg/kg single, CDK inhibitor intravenous injection 200 mg/kg single, 8 h before, cycle 10 days): 10%
- Relative remission rate ([3]; Example 361, Carboplatin (CBP) intraperitoneal injection 120 mg/kg single, CDK inhibitor oral 200 mg/kg single, 8 h before, cycle 10 days): 60%
- Relative remission rate ([3]; Example 362, Carboplatin (CBP) intraperitoneal injection 120 mg/kg single, CDK inhibitor intravenous injection 200 mg/kg single, 12 h before, cycle 10 days): 10%
- Relative remission rate ([3]; Example 362, Carboplatin (CBP) intraperitoneal injection 120 mg/kg single, CDK inhibitor oral 200 mg/kg single, 12 h before, cycle 10 days): 60%
- Relative remission rate ([3]; Example 363, Carboplatin (CBP) intraperitoneal injection 120 mg/kg single, CDK inhibitor intravenous injection 200 mg/kg single, 24 h before, cycle 10 days): 10%
- Relative remission rate ([3]; Example 363, Carboplatin (CBP) intraperitoneal injection 120 mg/kg single, CDK inhibitor oral 200 mg/kg single, 24 h before, cycle 10 days): 80%
- Relative remission rate ([3]; Example 376, Gemcitabine (GEM) oral administration 300 mg/kg single, CDK inhibitor intravenous injection 100 mg/kg single, 24 h before, cycle 8 days): 20%
- Relative remission rate ([3]; Example 376, Gemcitabine (GEM) oral administration 300 mg/kg single, CDK inhibitor oral 100 mg/kg single, 24 h before, cycle 8 days): 60%
- relief of diarrhea by oral administration and injection administration ([3]; diarrhea caused by etoposide, etoposide in combination with cisplatin, carboplatin, gemcitabine, gemcitabine in combination with carboplatin, and topotecan, oral administration has the most significant effect): effectively relieve diarrhea
